pIC50: −log10 of the molar value.
System: HCT116
Experiment: In vitro cytotoxicity measured by the cell colony formation assay
Assay type: cell-based
Details: HCT116 cells, 72 h drug incubation, colonies counted after 7 days; ID50 = drug concentration producing 50% inhibition of colony formation; read-out: IN VITRO ID 50 (nm) HCT116
Protocol: In Vitro Cytotoxicity Measured by the Cell Colony Formation Assay
Four hundred cells (HCT116) were plated in 60 mm Petri dishes containing 2.7 mL of medium (modified McCoy's 5a medium containing 10% fetal bovine serum and 100 units/mL penicillin and 100 µg/mL streptomycin). The cells were incubated in a CO2 incubator at 37° C. for 5 h for attachment to the bottom of Petri dishes. The compounds identified in Example 2 were made up fresh in medium at ten times the final concentration, and then 0.3 mL of this stock solution was added to the 2.7 mL of medium in the dish. The cells were then incubated with drugs for 72 h at 37° C. At the end of incubation the drug-containing media were decanted, the dishes were rinsed with 4 mL of Hank's Balance Salt Solution (HBSS), 5 mL of fresh medium was added, and the dishes were returned to the incubator for colony formation. The cell colonies were counted using a colony counter after incubation for 7 days.

SMILES | pIC50
CC(=O)O[C@@]12CO[C@@H]1C[C@H](O)[C@@]1(C)C(=O)[C@H](OC(=O)C3CC3)C3=C(C)[C@@H](OC(=O)[C@H](O)[C@@H](NC(=O)c4ccco4)c4cccs4)C[C@@](O)([C@@H](OC(=O)c4ccccc4)C12)C3(C)C (stereo partly shown) [Compound 3297] | > 9.00
CC(=O)O[C@@]12CO[C@@H]1C[C@H](O)[C@@]1(C)C(=O)[C@H](OC(=O)C3CC3)C3=C(C)[C@@H](OC(=O)[C@H](O)[C@@H](NC(=O)c4ccccc4)c4ccsc4)C[C@@](O)([C@@H](OC(=O)c4ccccc4)C12)C3(C)C (stereo partly shown) [Compound 2838] | > 9.00
C/C=C/C(=O)N[C@@H](c1cccs1)[C@@H](O)C(=O)O[C@H]1C[C@@]2(O)[C@@H](OC(=O)c3ccccc3)C3[C@](C)(C(=O)[C@H](OC(=O)C4CC4)C(=C1C)C2(C)C)[C@@H](O)C[C@H]1OC[C@@]31OC(C)=O (stereo partly shown) [Compound 3513] | > 9.00
CC(=O)O[C@@]12CO[C@@H]1C[C@H](O)[C@@]1(C)C(=O)[C@H](OC(=O)C(C)C)C3=C(C)[C@@H](OC(=O)[C@H](O)[C@@H](NC(=O)OC(C)(C)C)c4ccsc4)C[C@@](O)([C@@H](OC(=O)c4ccccc4)C12)C3(C)C (stereo partly shown) [Compound 2291] | > 9.00
CC(=O)O[C@@]12CO[C@@H]1C[C@H](O)[C@@]1(C)C(=O)[C@H](OC(=O)C3CC3)C3=C(C)[C@@H](OC(=O)[C@H](O)[C@@H](NC(=O)OC(C)(C)C)C4CC4)C[C@@](O)([C@@H](OC(=O)c4ccccc4)C12)C3(C)C (stereo partly shown) [Compound 0860] | > 9.00
CC(=O)O[C@@]12CO[C@@H]1C[C@H](O)[C@@]1(C)C(=O)[C@H](OC(=O)C3CC3)C3=C(C)[C@@H](OC(=O)[C@H](O)[C@@H](NC(=O)c4ccccc4)c4ccncc4)C[C@@](O)([C@@H](OC(=O)c4ccccc4)C12)C3(C)C (stereo partly shown) [Compound 2855] | > 9.00
CC(=O)O[C@@]12CO[C@@H]1C[C@H](O)[C@@]1(C)C(=O)[C@H](OC(=O)C3CC3)C3=C(C)[C@@H](OC(=O)[C@H](O)[C@@H](NC(=O)OCC(C)C)c4cccs4)C[C@@](O)([C@@H](OC(=O)c4ccccc4)C12)C3(C)C (stereo partly shown) [Compound 3129] | > 8.00
CCC(=O)O[C@H]1C(=O)[C@@]2(C)C([C@H](OC(=O)c3ccccc3)[C@]3(O)C[C@H](OC(=O)[C@H](O)[C@@H](NC(=O)OC(C)(C)CC)c4ccco4)C(C)=C1C3(C)C)[C@]1(OC(C)=O)CO[C@@H]1C[C@@H]2O (stereo partly shown) [Compound 6522] | > 9.00
CC(=O)O[C@@]12CO[C@@H]1C[C@H](O)[C@@]1(C)C(=O)[C@H](OC(=O)C3CC3)C3=C(C)[C@@H](OC(=O)[C@H](O)[C@@H](NC(=O)OC(C)(C)C)c4ccoc4)C[C@@](O)([C@@H](OC(=O)c4ccccc4)C12)C3(C)C (stereo partly shown) [Compound 2781] | > 9.00
CCC(=O)O[C@H]1C(=O)[C@@]2(C)C([C@H](OC(=O)c3ccccc3)[C@]3(O)C[C@H](OC(=O)[C@H](O)[C@@H](NC(=O)OC(C)(C)C)c4ccoc4)C(C)=C1C3(C)C)[C@]1(OC(C)=O)CO[C@@H]1C[C@@H]2O (stereo partly shown) [Compound 5495] | > 9.00
CCC(=O)O[C@H]1C(=O)[C@@]2(C)C([C@H](OC(=O)c3ccccc3)[C@]3(O)C[C@H](OC(=O)[C@H](O)[C@@H](NC(=O)OC(C)(C)C)c4ccccn4)C(C)=C1C3(C)C)[C@]1(OC(C)=O)CO[C@@H]1C[C@@H]2O (stereo partly shown) [Compound 0503] | > 9.00
CCC(=O)O[C@H]1C(=O)[C@@]2(C)C([C@H](OC(=O)c3ccccc3)[C@]3(O)C[C@H](OC(=O)[C@H](O)[C@@H](NC(=O)OC(C)(C)C)C(C)C)C(C)=C1C3(C)C)[C@]1(OC(C)=O)CO[C@@H]1C[C@@H]2O (stereo partly shown) [Compound 0583] | > 8.00
CCC(=O)O[C@H]1C(=O)[C@@]2(C)C([C@H](OC(=O)c3ccccc3)[C@]3(O)C[C@H](OC(=O)[C@H](O)[C@H](C=C(C)C)NC(=O)OCC(C)C)C(C)=C1C3(C)C)[C@]1(OC(C)=O)CO[C@@H]1C[C@@H]2O (stereo partly shown) [Compound 5065] | > 8.00
CCCC(=O)OC1C(=O)C2(C)C(O)CC3OCC3(OC(C)=O)C2C(OC(=O)c2ccccc2)C2(O)CC(OC(=O)C(O)C(NC(=O)OC(C)(C)C)C3CC3)C(C)=C1C2(C)C (stereo not shown) [Compound 1020] | > 9.00
C/C=C/C(=O)O[C@H]1C(=O)[C@@]2(C)C([C@H](OC(=O)c3ccccc3)[C@]3(O)C[C@H](OC(=O)[C@H](O)[C@@H](NC(=O)OC(C)(C)C)c4ccncc4)C(C)=C1C3(C)C)[C@]1(OC(C)=O)CO[C@@H]1C[C@@H]2O (stereo partly shown) [Compound 2366] | > 9.00
CCC(=O)O[C@H]1C(=O)[C@@]2(C)C([C@H](OC(=O)c3ccccc3)[C@]3(O)C[C@H](OC(=O)[C@H](O)[C@@H](NC(=O)OC(C)(C)C)c4ccccc4)C(C)=C1C3(C)C)[C@]1(OC(C)=O)CO[C@@H]1C[C@@H]2O (stereo partly shown) [Compound 0611] | > 8.00
C/C=C/C(=O)O[C@H]1C(=O)[C@@]2(C)C([C@H](OC(=O)c3ccccc3)[C@]3(O)C[C@H](OC(=O)[C@H](O)[C@@H](NC(=O)OC(C)(C)C)C(C)C)C(C)=C1C3(C)C)[C@]1(OC(C)=O)CO[C@@H]1C[C@@H]2O (stereo partly shown) [Compound 2413] | > 8.00

SMILES | pIC50
CC(=O)OC12COC1CC(O)C1(C)C(=O)C(OC(=O)c3ccco3)C3=C(C)C(OC(=O)C(O)C(NC(=O)OC(C)(C)C)c4cccs4)CC(O)(C(OC(=O)c4ccccc4)C21)C3(C)C (stereo not shown) [Compound 2164] | > 9.00
CC(=O)OC12COC1CC(O)C1(C)C(=O)C(OC(=O)c3cccs3)C3=C(C)C(OC(=O)C(O)C(NC(=O)OC(C)(C)C)c4ccsc4)CC(O)(C(OC(=O)c4ccccc4)C21)C3(C)C (stereo not shown) [Compound 1939] | > 9.00
CCC(=O)O[C@H]1C(=O)[C@@]2(C)C([C@H](OC(=O)c3ccccc3)[C@]3(O)C[C@H](OC(=O)[C@H](O)[C@@H](NC(=O)OCC(C)C)c4ccsc4)C(C)=C1C3(C)C)[C@]1(OC(C)=O)CO[C@@H]1C[C@@H]2O (stereo partly shown) [Compound 4711] | > 8.00
C/C=C/C(=O)N[C@@H](c1cccs1)[C@@H](O)C(=O)O[C@H]1C[C@@]2(O)[C@@H](OC(=O)c3ccccc3)C3[C@](C)(C(=O)[C@H](OC(=O)CCC)C(=C1C)C2(C)C)[C@@H](O)C[C@H]1OC[C@@]31OC(C)=O (stereo partly shown) [Compound 3595] | > 9.00
CCCC(=O)N[C@@H](c1cccs1)[C@@H](O)C(=O)O[C@H]1C[C@@]2(O)[C@@H](OC(=O)c3ccccc3)C3[C@](C)(C(=O)[C@H](OC(=O)C4CC4)C(=C1C)C2(C)C)[C@@H](O)C[C@H]1OC[C@@]31OC(C)=O (stereo partly shown) [Compound 3132] | > 9.00
CCC(=O)O[C@H]1C(=O)[C@@]2(C)C([C@H](OC(=O)c3ccccc3)[C@]3(O)C[C@H](OC(=O)[C@H](O)[C@@H](NC(=O)OCC(C)C)C4CC4)C(C)=C1C3(C)C)[C@]1(OC(C)=O)CO[C@@H]1C[C@@H]2O (stereo partly shown) [Compound 4799] | > 9.00
C/C=C/C(=O)O[C@H]1C(=O)[C@@]2(C)C([C@H](OC(=O)c3ccccc3)[C@]3(O)C[C@H](OC(=O)[C@H](O)[C@@H](NC(=O)OC(C)(C)C)c4ccccc4)C(C)=C1C3(C)C)[C@]1(OC(C)=O)CO[C@@H]1C[C@@H]2O (stereo partly shown) [Compound 2442] | > 9.00
CCCC(=O)O[C@H]1C(=O)[C@@]2(C)C([C@H](OC(=O)c3ccccc3)[C@]3(O)C[C@H](OC(=O)[C@H](O)[C@@H](NC(=O)c4ccccc4)c4cccs4)C(C)=C1C3(C)C)[C@]1(OC(C)=O)CO[C@@H]1C[C@@H]2O (stereo partly shown) [Compound 3258] | > 9.00
CCC(=O)O[C@H]1C(=O)[C@@]2(C)C([C@H](OC(=O)c3ccccc3)[C@]3(O)C[C@H](OC(=O)[C@H](O)[C@@H](NC(=O)c4ccccc4)c4ccoc4)C(C)=C1C3(C)C)[C@]1(OC(C)=O)CO[C@@H]1C[C@@H]2O (stereo partly shown) [Compound 0670] | > 9.00
CCCC(=O)O[C@H]1C(=O)[C@@]2(C)C([C@H](OC(=O)c3ccccc3)[C@]3(O)C[C@H](OC(=O)[C@H](O)[C@H](C=C(C)C)NC(=O)OC(C)(C)C)C(C)=C1C3(C)C)[C@]1(OC(C)=O)CO[C@@H]1C[C@@H]2O (stereo partly shown) [Compound 0947] | > 9.00
CC(=O)O[C@@]12CO[C@@H]1C[C@H](O)[C@@]1(C)C(=O)[C@H](OC(=O)C3CC3)C3=C(C)[C@@H](OC(=O)[C@H](O)[C@@H](NC(=O)c4ccccc4)C4CC4)C[C@@](O)([C@@H](OC(=O)c4ccccc4)C12)C3(C)C (stereo partly shown) [Compound 0923] | > 9.00
CCCC(=O)N[C@@H](c1ccco1)[C@@H](O)C(=O)O[C@H]1C[C@@]2(O)[C@@H](OC(=O)c3ccccc3)C3[C@](C)(C(=O)[C@H](OC(=O)C4CC4)C(=C1C)C2(C)C)[C@@H](O)C[C@H]1OC[C@@]31OC(C)=O (stereo partly shown) [Compound 4062] | > 9.00
CC(=O)O[C@@]12CO[C@@H]1C[C@H](O)[C@@]1(C)C(=O)[C@H](OC(=O)C=C(C)C)C3=C(C)[C@@H](OC(=O)[C@H](O)[C@@H](NC(=O)OC(C)(C)C)c4ccoc4)C[C@@](O)([C@@H](OC(=O)c4ccccc4)C12)C3(C)C (stereo partly shown) [Compound 2499] | > 9.00
CC(=O)OC12COC1CC(O)C1(C)C(=O)C(OC(=O)c3cccs3)C3=C(C)C(OC(=O)C(O)C(NC(=O)OC(C)(C)C)C4CCC4)CC(O)(C(OC(=O)c4ccccc4)C21)C3(C)C (stereo not shown) [Compound 1970] | > 8.00
CCCC(=O)OC1C(=O)C2(C)C(O)CC3OCC3(OC(C)=O)C2C(OC(=O)c2ccccc2)C2(O)CC(OC(=O)C(O)C(NC(=O)OC(C)(C)C)c3ccccc3)C(C)=C1C2(C)C (stereo not shown) [Compound 1060] | > 9.00
CC(=O)O[C@@]12CO[C@@H]1C[C@H](O)[C@@]1(C)C(=O)[C@H](OC(=O)C3CC3)C3=C(C)[C@@H](OC(=O)[C@H](O)[C@@H](NC(=O)OC(C)C)c4ccco4)C[C@@](O)([C@@H](OC(=O)c4ccccc4)C12)C3(C)C (stereo partly shown) [Compound 3853] | > 9.00
CC(=O)O[C@@]12CO[C@@H]1C[C@H](O)[C@@]1(C)C(=O)[C@H](OC(=O)C3CC3)C3=C(C)[C@@H](OC(=O)[C@H](O)[C@H](C=C(C)C)NC(=O)OC(C)(C)C)C[C@@](O)([C@@H](OC(=O)c4ccccc4)C12)C3(C)C (stereo partly shown) [Compound 0838] | > 9.00

— patent US7524869B2, “Taxanes having a C10 ester substituent” (Florida State University Research Foundation, Inc., priority 2000, dated 2009)
